ChEMBL document CHEMBL3046782, “Fungicidial Activity of Benthiavalicarb-isopropyl against Phytophthora infestans and Its Controlling Activity against Late Blight Diseases” (J Pestic Sci, 2005)
Values after ≈ are worked out from the molar mass of the structure shown.

Test system: Phytophthora infestans
Experiment: Antifungal activity against phenylamide-resistant Phytophthora infestans 7-1 assessed as inhibition of mycelial growth after 5 to 7 days
Format: functional, organism-based, 07-Jan
Details: for IC50: Phytophthora infestans, 07-Jan, read-out: I50

SMILES | MIC [µg/mL] | IC50 [µg/mL]
CC(C)OC(=O)N[C@H](C(=O)N[C@H](C)c1nc2ccc(F)cc2s1)C(C)C [BENTHIAVALICARB-ISOPROPYL] | 0.1 (≈ 0.262 µM) | 0.04 (≈ 0.105 µM)
COCC(=O)N(c1c(C)cccc1C)C(C)C(=O)OC (centres undefined) [METALAXYL] | >10 | > 10
